Consider five compounds from PMC6587462 (Journal of Clinical Pharmacology, 2018).

The term Vd/F denotes the volume of distribution divided by bioavailability. Usually half-life stands for the time in which the quantity being followed falls by half. As usually defined, the AUC(0-inf) is the area under the concentration-time curve extrapolated to infinity. In general, Papp A→B refers to how fast a substance crosses the layer from the apical side. A word on the fraction unbound: it is free concentration divided by total concentration. A low value points to little free substance. The bioavailability is the share of a dose that reaches the circulation, judged against a reference dose that is usually intravenous. Low values mean little systemic uptake, high ones much systemic uptake.

The target of data set [1] is T1, 5‐HT3 receptor (Homo sapiens, UniProt P46098).
T1 sequence (P46098 24-478): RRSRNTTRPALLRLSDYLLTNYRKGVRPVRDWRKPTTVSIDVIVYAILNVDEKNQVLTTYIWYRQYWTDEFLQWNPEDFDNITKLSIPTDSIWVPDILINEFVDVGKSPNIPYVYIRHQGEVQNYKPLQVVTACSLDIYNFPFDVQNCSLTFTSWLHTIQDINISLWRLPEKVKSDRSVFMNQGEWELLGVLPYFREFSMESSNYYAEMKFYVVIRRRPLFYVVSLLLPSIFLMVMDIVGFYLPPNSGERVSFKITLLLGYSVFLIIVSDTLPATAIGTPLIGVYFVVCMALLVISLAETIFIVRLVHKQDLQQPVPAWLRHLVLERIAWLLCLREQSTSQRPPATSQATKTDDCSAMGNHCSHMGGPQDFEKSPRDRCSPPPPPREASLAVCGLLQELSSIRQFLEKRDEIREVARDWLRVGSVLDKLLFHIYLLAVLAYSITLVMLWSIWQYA
Conditions: Helsinn, data on file.

For data set [2] the following is noted: after both IV and oral administration; cited from earlier work.
The conditions of data set [3]: cited from earlier work.
Data set [4] is described as follows: Study 4 pilot bioequivalence study, PK after single oral NEPA. Format: in vivo. Conditions: human, plasma.
Data set [5] is described as follows: Study 5 bioequivalence study, PK after single oral NEPA. Format: in vivo, human.
Data set [6] in a line: Study 9 replicate crossover bioequivalence study. Type of data set: in vivo, human.
Data set [7] in a line: Study 11 population PK/pharmacodynamic study in cancer patients. Format: in vivo, human. Conditions: population PK modeling in patients.
Data set [8] in a line: Study 12 PK/safety and DDI study in cancer patients. Format: in vivo. Conditions: human, plasma, oral.
Data set [9] in a line: Oral NEPA PK in cancer patients, summary across studies. Conditions: human, plasma. Type of data set: in vivo.
Data set [10] in a line: Apical-to-basolateral permeability in MDCK II monolayer. Conditions: dog. Format: in vitro ADME, canine.
Data set [11] can be described thus: Biopharmaceutics Classification System class and solubility in water. Type of data set: physicochemical.
The nature of data set [12]: Binding to plasma proteins. Type of data set: in vitro ADME. Conditions: human, plasma.
The subject of data set [13] is plasma proteins. The experiment in a line: Binding to plasma proteins. Format: in vitro ADME.
Data set [14] can be described thus: Absolute / oral bioavailability. Conditions: human, plasma, po. Type of data set: in vivo.
On the set-up of data set [15]: species or system human. Conditions: estimated from t1/2.
For data set [16] the following is noted: cited from earlier work; for AUCinf / CL/F / Cmax / Tmax / Vz/F / t1/2: Study 8, healthy volunteers (22), NEPA FDC, mean (CV%).
The conditions of data set [17]: Study 11 population PK, patients (117), NEPA FDC, cited from earlier work.
The conditions of data set [18]: absorption, binding, metabolic, or excretory level; cited from earlier work.
The conditions of data set [19]: palonosetron; cited from earlier work.
The conditions of data set [20]: calculated logP; cited from earlier work.
Data set [21] deals with P‐glycoprotein (P‐gp) efflux transporter (Homo sapiens, UniProt P08183). Conditions: in vitro, cited from earlier work.
Chain of P‐glycoprotein (P‐gp) efflux transporter (P08183 whole entry): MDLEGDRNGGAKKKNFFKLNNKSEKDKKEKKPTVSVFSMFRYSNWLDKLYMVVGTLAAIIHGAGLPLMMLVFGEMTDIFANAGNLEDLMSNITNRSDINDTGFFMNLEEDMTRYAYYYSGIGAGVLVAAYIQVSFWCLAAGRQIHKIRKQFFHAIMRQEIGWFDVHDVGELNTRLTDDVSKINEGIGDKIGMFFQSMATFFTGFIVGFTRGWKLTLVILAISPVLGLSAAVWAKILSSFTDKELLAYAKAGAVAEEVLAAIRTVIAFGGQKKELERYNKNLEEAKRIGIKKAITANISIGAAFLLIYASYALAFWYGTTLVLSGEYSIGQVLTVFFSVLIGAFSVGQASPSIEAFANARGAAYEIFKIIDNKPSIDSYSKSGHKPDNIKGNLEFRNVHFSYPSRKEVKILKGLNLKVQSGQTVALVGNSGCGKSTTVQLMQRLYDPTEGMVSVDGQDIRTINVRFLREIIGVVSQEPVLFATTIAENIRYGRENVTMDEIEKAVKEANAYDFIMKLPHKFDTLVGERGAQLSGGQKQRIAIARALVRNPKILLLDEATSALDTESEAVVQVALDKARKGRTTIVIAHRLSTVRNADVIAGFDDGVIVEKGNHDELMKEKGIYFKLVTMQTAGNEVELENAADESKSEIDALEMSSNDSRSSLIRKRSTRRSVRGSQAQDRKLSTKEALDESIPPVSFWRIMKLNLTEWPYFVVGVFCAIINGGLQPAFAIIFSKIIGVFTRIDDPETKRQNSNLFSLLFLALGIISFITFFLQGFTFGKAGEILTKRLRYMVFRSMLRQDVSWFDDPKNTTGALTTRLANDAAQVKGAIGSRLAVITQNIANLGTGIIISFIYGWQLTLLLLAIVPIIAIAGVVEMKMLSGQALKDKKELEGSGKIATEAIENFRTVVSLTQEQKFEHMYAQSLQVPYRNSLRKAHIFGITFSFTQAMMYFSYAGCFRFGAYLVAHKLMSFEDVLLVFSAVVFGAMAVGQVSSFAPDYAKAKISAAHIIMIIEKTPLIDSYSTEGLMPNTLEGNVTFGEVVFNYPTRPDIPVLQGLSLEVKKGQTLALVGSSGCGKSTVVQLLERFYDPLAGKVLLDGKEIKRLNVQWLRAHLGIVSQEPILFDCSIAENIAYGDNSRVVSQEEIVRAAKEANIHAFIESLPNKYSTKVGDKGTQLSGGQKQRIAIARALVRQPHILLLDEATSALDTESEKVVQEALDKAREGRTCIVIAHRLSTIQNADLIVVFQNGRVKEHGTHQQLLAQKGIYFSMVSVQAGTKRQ
The conditions of data set [22]: cited from earlier work. This is another data set of the same source.
In data set [23] the test system is NG108‐15 cells. Conditions: netupitant and palonosetron combined; cited from earlier work.
Data set [24] has as its target NK1 receptor (Homo sapiens, UniProt P25103). Conditions: NG108-15 cells; netupitant and palonosetron combined; cited from earlier work.
The test system of data set [25] is CYP450 isoforms. Conditions: palonosetron; cited from earlier work.
Data set [26] in a line: clinical. Conditions: human, in vivo, po.
Data set [27] is described as follows: clinical. Conditions: human, in vivo.
For data set [28] the following is noted: cited from earlier work. This is another data set of the same source.

Entries after “also recorded” stand apart in the source; their conditions may differ. Where two headings read alike, the source gives them in different places. Bounds are passed on as bounds.

Chain of NK1 receptor (P25103 whole entry, species assumed, canonical isoform): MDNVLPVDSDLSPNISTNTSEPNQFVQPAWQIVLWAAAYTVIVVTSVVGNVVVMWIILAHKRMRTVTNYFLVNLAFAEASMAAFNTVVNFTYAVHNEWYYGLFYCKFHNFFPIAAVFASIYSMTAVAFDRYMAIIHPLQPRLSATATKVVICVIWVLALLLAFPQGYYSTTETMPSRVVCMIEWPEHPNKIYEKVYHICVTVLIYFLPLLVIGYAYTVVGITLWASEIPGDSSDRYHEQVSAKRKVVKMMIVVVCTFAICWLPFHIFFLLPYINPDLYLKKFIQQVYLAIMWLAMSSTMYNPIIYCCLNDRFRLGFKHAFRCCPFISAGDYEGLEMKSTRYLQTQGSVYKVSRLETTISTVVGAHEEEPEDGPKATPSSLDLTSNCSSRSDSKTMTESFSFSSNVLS

`O=C1c2cccc3c2[C@H](CC[C@@H]3O)CN1[C@@H]1CN2CCC1CC2` [6‐S‐hydroxy‐palonosetron]: the “5-HT3 receptor antagonist activity relative to palonosetron” value in [1] is on record as under 1%.
For `O=C1c2cccc3c2[C@H](CCC3)CN1[C@@H]1C[N+]2([O-])CCC1CC2` [M9, N‐oxide‐palonosetron], the “fraction of administered palonosetron dose found in urine” value in data set [2] is on record as “approximately 13%”. Moreover, the “5-HT3 receptor antagonist activity relative to palonosetron” value in data set [1] is listed as under 1%.
As for `C[C@@H](O[C@H]1OCCN(Cc2nc(O)n(P(=O)(O)O)n2)[C@H]1c1ccc(F)cc1)c1cc(C(F)(F)F)cc(C(F)(F)F)c1` [fosaprepitant], the “adverse reactions on intravenous administration” value in data set [3] is given as “injection‐site reactions”.
For `O=C1c2cccc3c2[C@H](CCC3)CN1[C@@H]1CN2CCC1CC2` [palonosetron], the Tmax in data set [4] was 4.19 h; in data set [5] (human, plasma, po), 4.68 h; in data set [6] (human, plasma, oral), 3.76 h; in data set [9], 3.01 to 5.33 h; in data set [16] (fasted) it was 4.34 (19.6) h; in data set [16] (fed), 4.96 (24.3) h. The Tmax in [17] (mean (CV%)) is 3.01 (66.4) h; in data set [26] it was 3.76 to 4.96 h. For the same compound, the Vd/F in data set [4] was 658 L; in [5] (human, plasma, po), 586 L; in data set [6] (human, plasma, oral), 575 L; in [8], 633 to 679 L; in [9], 483 to 679 L; in [26], 575 to 962 L. Also, the half-life in [4] is 42.1 h; in data set [5] (human, plasma, po), 44.2 h; in [6] (human, plasma, oral) it was 37.2 h; in data set [26], 36.9 to 48.3 h. For the same compound, the CL/F in data set [5] (Study 5, healthy volunteers (47), single oral NEPA FDC, mean (CV%)) was 9.6 (28.3) L/h; the CL/F in [6] (Study 9, healthy volunteers (82), NEPA FDC commercial product, mean (CV%)) is 11.1 (27.6) L/h; the CL/F (Healthy volunteers, Min-Max of study means, single oral NEPA) was in the range of 9.6 to 17.9 L/h; the CL/F in [16] (fasted) is 17.9 (34.1) L/h; the CL/F in data set [16] (fed) is given as 17.8 (28.0) L/h; the CL/F in data set [17] (value (%RSE)) is reported as 7.6 (%RSE = 3.64) L/h. Besides, the AUC(0-inf) is 0.0567 µg·h/mL in [5] (human, plasma, po); 0.0482 µg·h/mL in data set [6] (human, plasma, oral); 0.0481 to 0.0856 µg·h/mL in data set [9]; 0.0332 to 0.0567 µg·h/mL in data set [26]. Moreover, the Cmax in [5] (human, plasma, po) was 1.53 ng/mL; in [6] (human, plasma, oral) it was 1.27 ng/mL; in data set [9], 0.85 to 1.38 ng/mL; in data set [16] (fasted) it was 0.786 (28.4) ng/mL; in data set [16] (fed), 0.768 (20.7) ng/mL; in [17] (mean (CV%)), 1.378 (28.3) ng/mL. In data set [26], this compound displayed a Cmax of 0.768 to 1.53 ng/mL. In addition, in [7], the absorption lag time was 0.79 h. The compound also registered an absorption rate constant in [7] of 2.66 h⁻¹. In data set [10], this compound yielded an apparent permeability from apical to basolateral (Papp A→B) at 0.5 μM of 160 nm/s. This compound also returned an apical-to-basolateral permeability (Papp A→B) at 50 μM in data set [10] of 650 nm/s. For the same compound, in data set [11], the “Biopharmaceutics Classification System class” value is given as 1. The compound further came in with a fraction unbound in data set [12] of 0.38. In addition, in data set [13], the “binding to plasma proteins” value was found to be 62%. In data set [14], this compound came in with a bioavailability of about 100%. Further, the “fraction from previous NEPA administration eliminated at next dose” value in data set [15] (chemotherapy every 2 weeks) is “more than 99%”; in [15] (chemotherapy every 3 weeks), 100%. For the same compound, the “plasma concentration as fraction of mean Cmax” value (at 3 hours after oral NEPA) was “approximately 80%”. For the same compound, the figures for the AUCinf in data set [16] (fasted), in data set [16] (fed) and in data set [17] (mean (CV%)) were 33.645 (26.7) ng ⋅ h/mL, 33.199 (20.9) ng ⋅ h/mL and 68.611 (33.4) ng ⋅ h/mL, respectively. For the same compound, the figures for the Vz/F in [16] (fasted) and in [16] (fed) were 905 (20.7) L and 962 (24.5) L, respectively. The t1/2 in [16] (fasted) is 36.9 (23.6) h; in [16] (fed), 38.9 (29.1) h; in data set [22] (cancer patients, intravenous single dose) it was 49.8 h; in data set [22] (healthy subjects, intravenous single dose) it was 37.4 h. The “AUCinf and Cmax under fed (high-fat breakfast) vs fasting conditions” value in data set [16] (open, randomized, 2-way crossover study in healthy volunteers) was “similar”. Besides, the “PK interaction between netupitant and palonosetron” value in data set [18] was “no relevant PK interactions”. The “fraction of administered palonosetron dose found in urine” value in data set [2] is listed as “approximately 40%”. The solubility in water result in data set [19] was “freely soluble”. Further, in [20], the “octanol-water partition coefficient (logP)” value is listed as 2.72. In addition, the “substrate of P-gp (MDR1/P-gp) efflux transporter” value in data set [21] is recorded as “P‐gp substrate”. In addition, in [21] (parent drugs), the “inhibitor of P-gp efflux transporter” value is listed as “not an inhibitor; also recorded: not a P‐gp inhibitor”. In addition, in [23], the “combined effect on inhibition of substance P-mediated response” value is given as “synergistic effects”. The “combined effect on triggering NK1 receptor internalization” value in data set [24] is reported as “additive effects”. Moreover, in data set [25], the “CYP isoforms mediating metabolism” value was “primarily metabolized by CYP2D6 and to a lesser extent by CYP3A4 and CYP1A2”. In data set [27], this compound yielded a CL renal of 89.8 mL/min. Further, in [28], the “effect of coadministration of metoclopramide or aprepitant on pharmacokinetics” value is “did not alter”.
As for `C[C@@H](OC[C@@]1(c2ccccc2)CC[C@]2(CCC(=O)N2)CN1)c1cc(C(F)(F)F)cc(C(F)(F)F)c1` [rolapitant], the t1/2 result in data set [22] is given as “approximately 180 hours”. In data set [3], the “adverse reactions on intravenous administration” value is “injection‐site reactions”.
